# Source: patent US8648116B2, “Derivatives of N-(arylamino) sulfonamides including polymorphs as inhibitors of MEK as well as compositions, methods of use and methods for preparing the same” (Ardea Biosciences, Inc., priority 2005, dated 2014)
# Like-named read-outs stand apart in the source and are kept apart here.
# What was measured:
# human tumor cell lines = experiment: In vitro cancer screen (SRB; GI50, TGI, LC50); settings: for CC50: read-out: LC50
# [1] = system: select human cancer cells; experiment: Growth inhibition in proliferation assays, summary over cell lines; type: cell-based
# [2] = A549/ATCC (Non-Small Cell Lung Cancer)
# [3] = EKVX (Non-Small Cell Lung Cancer)
# [4] = HOP-62 (Non-Small Cell Lung Cancer)
# [5] = HOP-92 (Non-Small Cell Lung Cancer)
# [6] = NCI-H23 (Non-Small Cell Lung Cancer)
# [7] = NCI-H226 (Non-Small Cell Lung Cancer)
# [8] = NCI-H322M (Non-Small Cell Lung Cancer)
# [9] = NCI-H460 (Non-Small Cell Lung Cancer)
# [10] = NCI-H522 (Non-Small Cell Lung Cancer)
smiles,measurement,setting,value
COc1cc(F)c(F)c(Nc2ccc(I)cc2F)c1NS(=O)(=O)C1(C[C@H](O)CO)CC1,GI50,human tumor cell lines; 786-0 (Renal Cancer),5.13 µM
same,TGI,human tumor cell lines; 786-0 (Renal Cancer),23.442 µM
same,GI50,human tumor cell lines; A498 (Renal Cancer),0.191 µM
same,TGI,human tumor cell lines; A498 (Renal Cancer),4.169 µM
same,GI50,human tumor cell lines; [2],0.589 µM
same,TGI,human tumor cell lines; [2],64.565 µM
same,GI50,human tumor cell lines; ACHN (Renal Cancer),0.275 µM
same,TGI,human tumor cell lines; ACHN (Renal Cancer),21.878 µM
same,GI50,human tumor cell lines; BT-549 (Breast Cancer),5.75 µM
same,TGI,human tumor cell lines; BT-549 (Breast Cancer),20.893 µM
same,GI50,human tumor cell lines; CAKI-1 (Renal Cancer),0.389 µM
same,TGI,human tumor cell lines; CAKI-1 (Renal Cancer),26.915 µM
same,GI50,human tumor cell lines; CCRF-CEM (Leukemia),17.4 µM
same,TGI,human tumor cell lines; CCRF-CEM (Leukemia),60.256 µM
same,GI50,human tumor cell lines; DU-145 (Prostate Cancer),2.14 µM
same,TGI,human tumor cell lines; DU-145 (Prostate Cancer),22.387 µM
same,GI50,human tumor cell lines; [3],0.214 µM
same,TGI,human tumor cell lines; [3],13.804 µM
same,GI50,human tumor cell lines; HCC-2998 (Colon Cancer),0.01 µM
same,TGI,human tumor cell lines; HCC-2998 (Colon Cancer),0.035 µM
same,GI50,human tumor cell lines; HCT-15 (Colon Cancer),0.603 µM
same,TGI,human tumor cell lines; HCT-15 (Colon Cancer),16.982 µM
same,GI50,human tumor cell lines; HCT-116 (Colon Cancer),0.195 µM
same,TGI,human tumor cell lines; HCT-116 (Colon Cancer),12.589 µM
same,GI50,human tumor cell lines; HL-60(TB) (Leukemia),0.01 µM
same,TGI,human tumor cell lines; HL-60(TB) (Leukemia),100.000 µM
same,GI50,human tumor cell lines; [4],0.069 µM
same,TGI,human tumor cell lines; [4],12.589 µM
same,GI50,human tumor cell lines; [5],0.047 µM
same,TGI,human tumor cell lines; [5],0.324 µM
same,GI50,human tumor cell lines; HS 578T (Breast Cancer),0.617 µM
same,TGI,human tumor cell lines; HS 578T (Breast Cancer),13.490 µM
same,GI50,human tumor cell lines; HT29 (Colon Cancer),0.026 µM
same,TGI,human tumor cell lines; HT29 (Colon Cancer),3.090 µM
same,GI50,human tumor cell lines; IGROV1 (Ovarian Cancer),0.018 µM
same,TGI,human tumor cell lines; IGROV1 (Ovarian Cancer),0.295 µM
same,GI50,human tumor cell lines; K-562 (Leukemia),6.61 µM
same,TGI,human tumor cell lines; K-562 (Leukemia),100.000 µM
same,GI50,human tumor cell lines; KM12 (Colon Cancer),0.229 µM
same,TGI,human tumor cell lines; KM12 (Colon Cancer),13.490 µM
same,GI50,human tumor cell lines; LOX IMVI (Melanoma),0.195 µM
same,TGI,human tumor cell lines; LOX IMVI (Melanoma),10.715 µM
same,GI50,human tumor cell lines; M14 (Melanoma),0.015 µM
same,TGI,human tumor cell lines; M14 (Melanoma),0.166 µM
same,GI50,human tumor cell lines; MALME-3M (Melanoma),0.01 µM
same,TGI,human tumor cell lines; MALME-3M (Melanoma),0.014 µM
same,GI50,human tumor cell lines; MCF7 (Breast Cancer),11 µM
same,TGI,human tumor cell lines; MCF7 (Breast Cancer),30.903 µM
same,GI50,human tumor cell lines; MDA-MB-231 (Breast Cancer),0.069 µM
same,TGI,human tumor cell lines; MDA-MB-231 (Breast Cancer),10.471 µM
same,GI50,human tumor cell lines; MDA-MB-435 (Breast Cancer),0.035 µM
same,TGI,human tumor cell lines; MDA-MB-435 (Breast Cancer),12.303 µM
same,GI50,human tumor cell lines; MDA-MB-468 (Breast Cancer),0.019 µM
same,TGI,human tumor cell lines; MDA-MB-468 (Breast Cancer),10.233 µM
same,GI50,human tumor cell lines; MOLT-4 (Leukemia),11 µM
same,TGI,human tumor cell lines; MOLT-4 (Leukemia),69.183 µM
same,GI50,human tumor cell lines; [6],0.056 µM
same,TGI,human tumor cell lines; [6],2.884 µM
same,GI50,human tumor cell lines; [7],3.31 µM
same,TGI,human tumor cell lines; [7],24.547 µM
same,GI50,human tumor cell lines; [8],0.162 µM
same,TGI,human tumor cell lines; [8],15.488 µM
same,GI50,human tumor cell lines; [9],3.63 µM
same,TGI,human tumor cell lines; [9],19.498 µM
same,GI50,human tumor cell lines; [10],5.25 µM
same,TGI,human tumor cell lines; [10],29.512 µM
same,GI50,human tumor cell lines; NCI/ADR-RES (Breast Cancer),3.47 µM
same,TGI,human tumor cell lines; NCI/ADR-RES (Breast Cancer),25.704 µM
same,GI50,human tumor cell lines; OVCAR-3 (Ovarian Cancer),2.51 µM
same,TGI,human tumor cell lines; OVCAR-3 (Ovarian Cancer),17.783 µM
same,GI50,human tumor cell lines; OVCAR-4 (Ovarian Cancer),0.562 µM
same,TGI,human tumor cell lines; OVCAR-4 (Ovarian Cancer),16.218 µM
same,GI50,human tumor cell lines; OVCAR-5 (Ovarian Cancer),0.017 µM
same,TGI,human tumor cell lines; OVCAR-5 (Ovarian Cancer),12.023 µM
same,GI50,human tumor cell lines; PC-3 (Prostate Cancer),8.13 µM
same,TGI,human tumor cell lines; PC-3 (Prostate Cancer),37.154 µM
same,GI50,human tumor cell lines; RPMI-8226 (Leukemia),26.9 µM
same,TGI,human tumor cell lines; RPMI-8226 (Leukemia),100.000 µM
same,GI50,human tumor cell lines; SF-268 (CNS Cancer),2.57 µM
same,TGI,human tumor cell lines; SF-268 (CNS Cancer),25.704 µM
same,GI50,human tumor cell lines; SF-295 (CNS Cancer),9.33 µM
same,TGI,human tumor cell lines; SF-295 (CNS Cancer),23.442 µM
same,GI50,human tumor cell lines; SF-539 (CNS Cancer),1.51 µM
same,TGI,human tumor cell lines; SF-539 (CNS Cancer),20.417 µM
same,GI50,human tumor cell lines; SK-MEL-5 (Melanoma),0.062 µM
same,TGI,human tumor cell lines; SK-MEL-5 (Melanoma),13.804 µM
same,GI50,human tumor cell lines; SK-MEL-28 (Melanoma),0.028 µM
same,TGI,human tumor cell lines; SK-MEL-28 (Melanoma),0.214 µM
same,GI50,human tumor cell lines; SK-OV-3 (Ovarian Cancer),12.9 µM
same,TGI,human tumor cell lines; SK-OV-3 (Ovarian Cancer),41.687 µM
same,GI50,human tumor cell lines; SN12C (Renal Cancer),0.851 µM
same,TGI,human tumor cell lines; SN12C (Renal Cancer),18.621 µM
same,GI50,human tumor cell lines; SNB-19 (CNS Cancer),0.251 µM
same,TGI,human tumor cell lines; SNB-19 (CNS Cancer),24.547 µM
same,GI50,human tumor cell lines; SNB-75 (CNS Cancer),0.302 µM
same,TGI,human tumor cell lines; SNB-75 (CNS Cancer),4.467 µM
same,GI50,human tumor cell lines; SR (Leukemia),38 µM
same,TGI,human tumor cell lines; SR (Leukemia),100.000 µM
same,GI50,human tumor cell lines; SW-620 (Colon Cancer),0.039 µM
same,TGI,human tumor cell lines; SW-620 (Colon Cancer),12.589 µM
same,GI50,human tumor cell lines; T-47D (Breast Cancer),4.9 µM
same,TGI,human tumor cell lines; T-47D (Breast Cancer),38.019 µM
same,GI50,human tumor cell lines; TK-10 (Renal Cancer),0.224 µM
same,TGI,human tumor cell lines; TK-10 (Renal Cancer),23.442 µM
same,GI50,human tumor cell lines; U251 (CNS Cancer),0.891 µM
same,TGI,human tumor cell lines; U251 (CNS Cancer),17.378 µM
same,GI50,human tumor cell lines; UACC-62 (Melanoma),0.014 µM
same,TGI,human tumor cell lines; UACC-62 (Melanoma),0.170 µM
same,GI50,human tumor cell lines; UACC-257 (Melanoma),0.02 µM
same,TGI,human tumor cell lines; UACC-257 (Melanoma),10.233 µM
same,GI50,human tumor cell lines; UO-31 (Renal Cancer),0.158 µM
same,TGI,human tumor cell lines; UO-31 (Renal Cancer),11.482 µM
same,CC50,human tumor cell lines; HCT-15 (Colon Cancer),60.3 µM
same,CC50,human tumor cell lines; HT29 (Colon Cancer),29.5 µM
same,CC50,human tumor cell lines; M14 (Melanoma),29.5 µM
same,CC50,human tumor cell lines; MDA-MB-435 (Breast Cancer),41.7 µM
same,CC50,human tumor cell lines; SF-539 (CNS Cancer),60.3 µM
same,CC50,human tumor cell lines; SK-MEL-28 (Melanoma),22.4 µM
same,CC50,human tumor cell lines; UACC-62 (Melanoma),20.9 µM
same,GI50,"[1]; mean over A375, Colo205, HT29 and A431, 48 hr, ATP content, read-out: growth inhibition, mean potency (GI50)",0.079 µM
same,GI50,"[1]; select human cancer cells, range, read-out: GI50 values, anchorage dependent proliferation assays",0.07 to 0.089 µM
same,GI50,"[1]; select human cancer cells, read-out: GI50, anchorage dependent proliferation assays",0.051 µM
same,GI50,"[1]; select human cancer cells, read-out: GI50, anchorage independent proliferation assays",0.022 µM
